The supplement of paper PMC6045584
± gives the standard deviation of the averaged measurements.

Experiments:
OSI-906 = compound: C[C@]1(O)C[C@@H](c2nc(-c3ccc4ccc(-c5ccccc5)nc4c3)c3c(N)nccn32)C1 [OSI-906]; experiment: area under dose-response curve of surviving fraction (unscaled, Aref=0) (surviving fraction x log10(nM)); higher = more resistant; conditions: exposure time: 5 days; dose range 0.5-1000 nM
Outline: (§1)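 Each tumour cell line was screened three times in 384-well plates, receiving eight inhibitor concentrations from 0.5 to 1000 nM for five days. CellTiter-Glo luminescence gave viability, normalised to DMSO-only wells. Using the drc R package, surviving fractions were fitted with 3-parameter logistic dose-response curves, and the unscaled activity area over log10 dose (Aref = 0) was taken as the area under the curve.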

GEFITINIB = compound: COc1cc2ncnc(Nc3ccc(F)c(Cl)c3)c2cc1OCCCN1CCOCC1 [GEFITINIB]; experiment: as above; conditions: exposure time: 5 days; dose range 0.5-1000 nM
Outline: as §1

CAMPTOTHECIN = compound: CC[C@@]1(O)C(=O)OCc2c1cc1n(c2=O)Cc2cc3ccccc3nc2-1 [CAMPTOTHECIN]; experiment: as above; conditions: exposure time: 5 days; dose range 0.5-1000 nM
Outline: as §1

PACLITAXEL = compound: CC(=O)O[C@H]1C(=O)[C@@]2(C)[C@H]([C@H](OC(=O)c3ccccc3)[C@]3(O)C[C@H](OC(=O)[C@H](O)[C@@H](NC(=O)c4ccccc4)c4ccccc4)C(C)=C1C3(C)C)[C@]1(OC(C)=O)CO[C@@H]1C[C@@H]2O [PACLITAXEL]; experiment: as above; conditions: exposure time: 5 days; dose range 0.5-1000 nM
Outline: as §1

CARBOPLATIN = compound: O=C(O)C1(C(=O)O)CCC1.[NH2-].[NH2-].[Pt+2] [CARBOPLATIN]; experiment: as above; conditions: exposure time: 5 days; dose range 0.5-1000 nM
Outline: as §1

CELECOXIB [1] = compound: T1, Cc1ccc(-c2cc(C(F)(F)F)nn2-c2ccc(S(N)(=O)=O)cc2)cc1 [CELECOXIB]; experiment: as above; conditions: exposure time: 5 days; dose range 0.5-1000 nM
Outline: as §1

[2] = compound: CC(=O)c1c(C)c2cnc(Nc3ccc(N4CCNCC4)cn3)nc2n(C2CCCC2)c1=O; experiment: as above; conditions: exposure time: 5 days; dose range 0.5-1000 nM
Outline: as §1

YM155 = compound: COCC[n+]1c2c(n(Cc3cnccn3)c1C)C(=O)c1ccccc1C2=O [YM155]; experiment: as above; conditions: exposure time: 5 days; dose range 0.5-1000 nM
Outline: as §1

[3] = compound: CC(=O)NCC(=O)N1[C@@H]2CC[C@H]1c1ccc(Nc3ncc(C(F)(F)F)c(NC4CCC4)n3)cc12; experiment: as above; conditions: exposure time: 5 days; dose range 0.5-1000 nM
Outline: as §1

CELECOXIB [4] = compound: T1, CELECOXIB; experiment: surviving fraction relative to DMSO-only wells; higher = less growth inhibition; conditions: exposure time: 5 days
Outline: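 Surviving fraction is CellTiter-Glo luminescence divided by the median of wells given DMSO only. For this, log-phase tumour cell lines went into 384-well plates at 250–500 cells per well and, 24 hours later, into five days of continuous inhibitor exposure at 0.5, 1, 5, 10, 50, 100, 500 and 1000 nM. Lines were screened three times and retained only if replicate Pearson r >0.7 and median Z' >0.3.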

| Test System | area under dose-response curve (OSI-906) | area under dose-response curve (GEFITINIB) | area under dose-response curve (CAMPTOTHECIN) | area under dose-response curve (PACLITAXEL) | area under dose-response curve (CARBOPLATIN) | area under dose-response curve (CELECOXIB [1]) | area under dose-response curve [2] | area under dose-response curve (YM155) | area under dose-response curve [3] | surviving fraction (CELECOXIB [4]; 0.5 nM) | surviving fraction (CELECOXIB [4]; 1 nM) | surviving fraction (CELECOXIB [4]; 5 nM) | surviving fraction (CELECOXIB [4]; 10 nM) | surviving fraction (CELECOXIB [4]; 50 nM) | surviving fraction (CELECOXIB [4]; 100 nM) | surviving fraction (CELECOXIB [4]; 500 nM) | surviving fraction (CELECOXIB [4]; 1000 nM) |
| --- | --- | --- | --- | --- | --- | --- | --- | --- | --- | --- | --- | --- | --- | --- | --- | --- | --- |
| SAOS2 BONE | 2.83 | 3.62 | 1.2 | 1.1 | 3.68 | 3.78 | 3.65 | 1.05 | 2.47 | 1.14 ± 0.078 | 1.05 ± 0.026 | 1.187 ± 0.01 | 1.14 ± 0.06 | 1.22 ± 0.07 | 1.23 ± 0.054 | 1.11 ± 0.021 | 1.09 ± 0.018 |
| C33A CERVIX | 3.42 | 2.98 | 1.24 | 0.98 | 4.12 | 3.25 | 3.67 | 0.324 | 2.24 | 0.897 ± 0.037 | 0.951 ± 0.11 | 1.01 ± 0.083 | 0.954 ± 0.037 | 0.932 ± 0.11 | 1.04 ± 0.088 | 0.981 ± 0.13 | 1.11 ± 0.035 |
| MDAMB436 BREAST | 2.93 | 3.12 | 1.06 | 1.01 | 3.18 | 3.4 | 3.02 | 1.42 | 2.63 | 0.986 ± 0.11 | 1.09 ± 0.23 | 1.03 ± 0.085 | 1.04 ± 0.11 | 1.03 ± 0.11 | 1.03 ± 0.14 | 0.992 ± 0.076 | 0.992 ± 0.11 |
| H23 LUNG | 2.81 | 2.37 | 1.1 | 0.876 | 3.55 | 3.59 | 3.51 | 0.646 | 2.73 | 1.01 ± 0.018 | 1.04 ± 0.062 | 1.04 ± 0.021 | 1.03 ± 0.05 | 1.07 ± 0.05 | 1.18 ± 0.067 | 1.18 ± 0.015 | 1.16 ± 0.074 |
| MHM BONE | 3.03 | 3.37 | 2.08 | 1.43 | 3.46 | 3.42 | 3.35 | 1.94 | 3.12 | 1.01 ± 0.038 | 1.01 ± 0.027 | 1.04 ± 0.03 | 1.08 ± 0.057 | 1.05 ± 0.041 | 1.05 ± 0.025 | 1.009 ± 0.009 | 1.02 ± 0.028 |
